Values joined by “and” are separate entries in the source; they are usually repeats but may differ in a detail not shown here. Identical values can stand only once. Inconclusive results and toxic doses are left out. How the source made its calls: active means survival T/C of 150% or more; inactive means T/C below 125% in these data.
Test system: P388 leukemia ip, CD2F1 mice, survival T/C
Test: NCI In Vivo Anticancer Drug Screen. Data for tumor model P388 Leukemia (intraperitoneal) in CD2F1 (CDF1) mice
Settings: endpoint: median survival time, higher = longer survival
How it was run: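 Mice carrying the transplanted tumor received test compound or vehicle. Survival was recorded in each group, and the value is the treated-group measurement divided by that of the vehicle-treated control group.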

[1] = dose: 50.0 mg/kg/injection, schedule: Q01DX005 (ip), vehicle: Klucel (hydroxypropylcellulose) (HPC)
[2] = dose: 100.0 mg/kg/injection, schedule: Q01DX005 (ip), vehicle: Klucel (hydroxypropylcellulose) (HPC)
[3] = dose: 200.0 mg/kg/injection, schedule: Q01DX005 (ip), vehicle: Klucel (hydroxypropylcellulose) (HPC)
[4] = dose: 50.0 mg/kg/injection, schedule: Q01DX005 (ip), vehicle: saline
[5] = dose: 100.0 mg/kg/injection, schedule: Q01DX005 (ip), vehicle: saline
[6] = dose: 200.0 mg/kg/injection, schedule: Q01DX005 (ip), vehicle: saline
[7] = dose: 50.0 mg/kg/injection, schedule: Q01DX009 (ip), vehicle: saline
[8] = dose: 100.0 mg/kg/injection, schedule: Q01DX009 (ip), vehicle: saline
[9] = dose: 200.0 mg/kg/injection, schedule: Q01DX009 (ip), vehicle: saline
[10] = dose: 50.0 mg/kg/injection, schedule: Q01DX009 (ip), vehicle: saline with Tween-80
[11] = dose: 100.0 mg/kg/injection, schedule: Q01DX009 (ip), vehicle: saline with Tween-80
[12] = dose: 200.0 mg/kg/injection, schedule: Q01DX009 (ip), vehicle: saline with Tween-80
[13] = dose: 25.0 mg/kg/injection, schedule: Q01DX009 (ip), vehicle: saline with Tween-80
[14] = dose: 25.0 mg/kg/injection, schedule: Q04DX003 (ip), vehicle: saline with Tween-80
[15] = dose: 50.0 mg/kg/injection, schedule: Q04DX003 (ip), vehicle: saline with Tween-80
[16] = dose: 100.0 mg/kg/injection, schedule: Q04DX003 (ip), vehicle: saline with Tween-80
[17] = dose: 200.0 mg/kg/injection, schedule: Q04DX003 (ip), vehicle: saline with Tween-80

Measured: T/C

COC1C(OC(N)=O)C(O)C(Oc2ccc3c(O)c(NC(=O)c4ccc(O)c(CC=C(C)C)c4)c(=O)oc3c2C)OC1(C)C (configuration not stated)
inactive: dose: 25.0 mg/kg/injection, schedule: Q01DX009 (ip), vehicle: Klucel (hydroxypropylcellulose) (HPC) 100 % of control | [1] 109 % of control | dose: 50.0 mg/kg/injection, schedule: Q01DX009 (ip), vehicle: Klucel (hydroxypropylcellulose) (HPC) 95 % of control | [2] 106 % of control | dose: 100.0 mg/kg/injection, schedule: Q01DX009 (ip), vehicle: Klucel (hydroxypropylcellulose) (HPC) 100 % of control | [3] 109 % of control | dose: 200.0 mg/kg/injection, schedule: Q01DX009 (ip), vehicle: Klucel (hydroxypropylcellulose) (HPC) 103 % of control

CC1=CC(OC(C)C)OC1=O (configuration not stated)
inactive: [4] 108 % of control | [5] 110 % of control | [6] 110 % of control

COc1ccc2[nH]c3c(C)c4ccn5c(=O)c6ccccc6cc5c4c(C)c3c2c1
inactive: dose: 0.1 mg/kg/injection, schedule: Q04DX003 (ip), vehicle: distilled water + Tween-80 87 % of control | dose: 0.2 mg/kg/injection, schedule: Q04DX003 (ip), vehicle: distilled water + Tween-80 100 % of control | dose: 0.4 mg/kg/injection, schedule: Q04DX003 (ip), vehicle: distilled water + Tween-80 91 % of control | dose: 0.78 mg/kg/injection, schedule: Q04DX003 (ip), vehicle: distilled water + Tween-80 87 % of control | dose: 0.8 mg/kg/injection, schedule: Q04DX003 (ip), vehicle: distilled water + Tween-80 92 % of control | dose: 200.0 mg/kg/injection, schedule: Q04DX003 (ip), vehicle: distilled water + Tween-80 91 % of control

CC1(C)OC1CCl (configuration not stated)
inactive: [7] 107 % of control | [8] 102 % of control | [9] 101 % of control

COc1cc(C(=O)NN=C2c3ccccc3-c3ccccc32)cc(OC)c1OC
inactive: [10] 93 % of control | [11] 88 % of control | [12] 87 % of control

C(=C\c1ccc2c(c1)OCO2)/c1ccnnc1
inactive: [7] 100 % of control | [8] 97 % of control | [9] 100 % of control

CC(=O)Oc1ccccc1C(=O)O
inactive: dose: 31.3 mg/kg/injection, schedule: Q01DX009 (ip), vehicle: saline with Tween-80 90 % of control | [10] 99 % of control | dose: 62.5 mg/kg/injection, schedule: Q01DX009 (ip), vehicle: saline with Tween-80 100 % of control | [11] 107 % of control | dose: 125.0 mg/kg/injection, schedule: Q01DX009 (ip), vehicle: saline with Tween-80 104 % of control | [12] 95 % of control

CN1CCC(CN2c3ccccc3Sc3ccccc32)CC1
inactive: [13] 95 % of control | [14] 100 % of control | [10] 100 % of control | [15] 109 % of control | [11] 95 % of control | [16] 109 % of control

CCn1ccc(NS(=O)(=O)c2ccc(N)cc2)nc1=O
inactive: [1] 98 % of control | [2] 105 % of control | [3] 100 % of control

O=C(c1ccccc1)c1cc([N+](=O)[O-])cc([N+](=O)[O-])c1
inactive: [11] 104 % of control | [12] 97 % of control | dose: 400.0 mg/kg/injection, schedule: Q01DX009 (ip), vehicle: saline with Tween-80 97 % of control

CC(C)N(C(=O)c1ccc(Cl)c(Cl)c1)C(C)C
inactive: dose: 12.5 mg/kg/injection, schedule: Q04DX003 (ip), vehicle: saline with Tween-80 102 % of control and 103 % of control | [14] 102 % of control and 97 % of control | [15] 100 % of control and 97 % of control | [16] 103 % of control and 106 % of control (2×) | [17] 105 % of control | dose: 400.0 mg/kg/injection, schedule: Q04DX003 (ip), vehicle: saline with Tween-80 101 % of control

CC(C)(C)NCC(O)COc1nsnc1N1CCOCC1 (configuration not stated)
inactive: dose: 50.0 mg/kg/injection, schedule: Q01DX009 (ip), vehicle: water 103 % of control | dose: 100.0 mg/kg/injection, schedule: Q01DX009 (ip), vehicle: water 108 % of control | dose: 200.0 mg/kg/injection, schedule: Q01DX009 (ip), vehicle: water 111 % of control

CC12CC3(C)CC(C(Cl)C(=O)O)(C1)CC(C(Cl)C(=O)O)(C2)C3 (configuration not stated)
inactive: [10] 103 % of control | [11] 100 % of control | [12] 107 % of control

C=C1C(=O)OC2C3[C@@]4(C)O[C@H]4[C@H]4O[C@@]34[C@](C)(O)CC(OC(C)=O)[C@@H]12 (some centres not stated)
inactive: dose: 1687.5 micrograms/kg/injection, schedule: Q01DX005 (ip), vehicle: Klucel (hydroxypropylcellulose) (HPC) 104 % of control | dose: 3375.0 micrograms/kg/injection, schedule: Q01DX005 (ip), vehicle: Klucel (hydroxypropylcellulose) (HPC) 108 % of control | dose: 6750.0 micrograms/kg/injection, schedule: Q01DX005 (ip), vehicle: Klucel (hydroxypropylcellulose) (HPC) 100 % of control | dose: 13500.0 micrograms/kg/injection, schedule: Q01DX005 (ip), vehicle: Klucel (hydroxypropylcellulose) (HPC) 106 % of control

CCOC(=O)/C=C1\COc2nc(N)[nH]c(=O)c2N1
inactive: dose: 12.5 mg/kg/injection, schedule: Q01DX005 (ip), vehicle: Klucel (hydroxypropylcellulose) (HPC) 93 % of control | dose: 25.0 mg/kg/injection, schedule: Q01DX005 (ip), vehicle: Klucel (hydroxypropylcellulose) (HPC) 91 % of control | [1] 89 % of control | [2] 94 % of control | [3] 91 % of control

CSc1cccc(NC(=O)N2CCCCC2C)c1 (configuration not stated)
inactive: [10] 100 % of control | [11] 92 % of control | [12] 100 % of control

N#CC1C(=O)NC(=O)C(C#N)C12CCCCC2 (configuration not stated)
inactive: [15] 105 % of control | [16] 100 % of control | [17] 105 % of control

COC(=O)C1CC(C)N1C1CCCCC1 (configuration not stated)
inactive: [4] 97 % of control | [5] 97 % of control | [6] 101 % of control

Cc1c2c(=O)oc3ccc(Cl)cc3c2nn1-c1ccccc1
inactive: dose: 60.0 mg/kg/injection, schedule: Q01DX005 (ip), vehicle: Klucel (hydroxypropylcellulose) (HPC) 96 % of control | dose: 120.0 mg/kg/injection, schedule: Q01DX005 (ip), vehicle: Klucel (hydroxypropylcellulose) (HPC) 93 % of control

COc1ccc(N=C(C2=C(O)c3ccccc3C2=O)c2ccccc2)cc1
inactive: dose: 100.0 mg/kg/injection, schedule: Q04DX002 (ip), vehicle: saline with Tween-80 101 % of control | dose: 200.0 mg/kg/injection, schedule: Q04DX002 (ip), vehicle: saline with Tween-80 101 % of control | dose: 400.0 mg/kg/injection, schedule: Q04DX002 (ip), vehicle: saline with Tween-80 97 % of control

CCCS(=O)(=O)/C=C/C(=O)c1ccc2ccccc2c1
inactive: dose: 100.0 mg/kg/injection, schedule: Q04DX003 (ip), vehicle: saline 105 % of control | dose: 200.0 mg/kg/injection, schedule: Q04DX003 (ip), vehicle: saline 108 % of control | dose: 400.0 mg/kg/injection, schedule: Q04DX003 (ip), vehicle: saline 106 % of control

CCO/C([O-])=C(\C=N\S(=O)(=O)c1ccc(C)cc1)[n+]1ccc(C)cc1
inactive: dose: 100.0 mg/kg/injection, schedule: Q04DX003 (ip), vehicle: Klucel (hydroxypropylcellulose) (HPC) 103 % of control | dose: 200.0 mg/kg/injection, schedule: Q04DX003 (ip), vehicle: Klucel (hydroxypropylcellulose) (HPC) 100 % of control | dose: 400.0 mg/kg/injection, schedule: Q04DX003 (ip), vehicle: Klucel (hydroxypropylcellulose) (HPC) 101 % of control

C=C(C)COc1ccc(C)cc1Br
inactive: [1] 101 % of control | [2] 103 % of control | [3] 113 % of control

CC(C)=CC[P+](CCC[P+](CC=C(C)C)(c1ccccc1)c1ccccc1)(c1ccccc1)c1ccccc1
inactive: dose: 3.12 mg/kg/injection, schedule: Q01DX005 (ip), vehicle: saline with Tween-80 106 % of control | dose: 6.25 mg/kg/injection, schedule: Q01DX005 (ip), vehicle: saline with Tween-80 104 % of control | dose: 12.5 mg/kg/injection, schedule: Q01DX005 (ip), vehicle: saline with Tween-80 98 % of control

O=C(O)c1cc(NCCO)c(C(=O)O)cc1NCCO
inactive: [4] 97 % of control | [5] 100 % of control | [6] 91 % of control

CC1(C)CCCC12C=NCC2 (configuration not stated)
inactive: dose: 6.25 mg/kg/injection, schedule: Q01DX009 (ip), vehicle: saline with Tween-80 99 % of control | dose: 12.5 mg/kg/injection, schedule: Q01DX009 (ip), vehicle: saline with Tween-80 95 % of control | [13] 102 % of control | [10] 101 % of control

Source: PubChem BioAssay AID330 (DTP/NCI, 2004)
